Columns and labels:
Format in all cases: cell-based, human
[1] = system: MS-1 TCR cell line; assay: T cell stimulation assay (CD69), MS1-TCR cell line co-cultured with peptide-loaded T2-DR15 antigen presenting cells; details: for self-peptide identified for TCR2/MS-1 TCR: predicted with positional mutation/refined substitution matrix data, used for MS-1 TCR stimulation
Text: We generated MS1-TCR cell line, co-cultured with T2-DR15 antigen presenting cell line loaded with yeast library generated peptides and were examined for activation. CD69 was used as a marker for T cell activation. […] We used yeast library enrichment data to predict actual peptides/antigens (self or non-self) for MS-1 CD4 TCRs.
TCRα, β constructs were cloned into a lentiviral construct. For TCR expression, alpha and beta TCR lentiviral constructs were transfected into 293× cells separately. The virus was harvested after 72 hr of transfection and transduced into Jurkat αβ^−/− or SKW αβ^−/− cells. SKW or Jurkat cells were enriched for highest expression of TCRαβ by using a Miltenyi anti-APC selection (Miltenyi 130-090-855).
T cell stimulation assays were performed as previously described. All the T cell peptide stimulation experiments were done in 96 well round bottom plates with a 200 μl total volume. T2, K562 cells or BMDCs were pulsed with 10-100 ug of the peptides for 45 minutes, washed once and plated (10,000 cells/well). Cell lines expressing TCRs (100, 000 cells/well) were co-cultured with APCs for 18 hr. At the end of stimulation, cells were harvested, washed, and stained with TCRβ, human CD3, and CD69 and analyzed on LSR II (Becton Dickinson) for activation.

[2] = system: Adeno-TCR1; assay: T cell stimulation of adeno-tetramer sorted CD4 TCR cell line, cross reactivity with MBP 85-99 peptide; details: adeno specific TCR cell line stimulated with Adeno peptide and MBP
Text: (§1) To detect/determine adeno specific T cells directly from MS patients (n=9) and healthy (n=9), we generated pMHC tetramers, enriched, and enumerated CD4's that are specific to the adeno peptide. We were able to detect adeno specific CD4 T cells, which were higher in number among MS patients compared to HC. We also single cell sorted these adeno specific CD4 T cells, sequenced their TCRs, and generated TCR cell lines (adeno specific TCRs).
(§2) TCR cell lines from adeno-tetramer sorted CD4 TCRs were tested for cross reactivity with MBP 85-99 peptide. We also tested MS-1 TCR for cross reactivity with MBP. Adeno specific TCRs were stimulated with Adeno peptide and MBP. TCR2/ms-1 TCR and some of the adeno-TCRs (Adeno-TCR1 and 9) cross react with MBP peptide. Serum from MS (n=28) and HC (n=10) was tested for adeno virus titers in the serum. A subset of MS sera had higher adeno virus compared to HC sera. CD3+ T cells from 8 MS and 5 HCs were sorted, and TCR and RNA-seq performed using 10× platform. Additionally, for 4 out of 8 MS patients, T cells from cerebrospinal fluid were sequenced. […]
(§3) T cell stimulation assays were performed as previously described. […] At the end of stimulation, cells were harvested, washed, and stained with TCRβ, human CD3, and CD69 and analyzed on LSR II (Becton Dickinson) for activation.

[3] = system: Adeno-TCR9; assay: as above; details: adeno specific TCR cell line stimulated with Adeno peptide and MBP
Text: as §1, §2, §3

Question: How did the “self-peptide identified for TCR2/MS-1 TCR” value (“self-peptide identified” below) [1] turn out when ANYGKARSWYLK [SEQ ID NO:2] was run?
Answer: identified for TCR2/MS-1 TCR

Question: With ENPVVHFFKNIVTPR [MBP peptide] as the sequence, how does the “cross reactivity of TCR2/MS-1 TCR with MBP peptide” value ([1]; TCR cell line stimulated with Adeno peptide and MBP) read?
Answer: cross react

Question: What about the “cross reactivity of Adeno-TCR1 with MBP peptide” value [2] of the same sequence?
Answer: cross react

Question: And the “cross reactivity of Adeno-TCR9 with MBP peptide” value [3]?
Answer: cross react

Question: Which “self-peptide identified” value [1] does the source give for IDRHMYHSYLK [SEQ ID NO:3] here?
Answer: identified for TCR2/MS-1 TCR

Question: With ATFTSYRSWYLA [Adeno] as the sequence, how does the “stimulation of MS-1 TCR cell line (CD69 as marker for T cell activation)” value ([1]; co-cultured with T2-DR15 antigen presenting cell line loaded with peptide) read?
Answer: stimulated MS-1 TCR cell line

Question: DKGQQYRNWFLK [SEQ ID NO:4] was tested. Which “self-peptide identified” value [1] did it give?
Answer: identified for TCR2/MS-1 TCR

— US12440544B2, “Cross-reactive epitope for multiple sclerosis” (The Board of Trustees of the Leland Stanford Junior …, priority 2019, dated 2025)
